One data set has as its target human sEH (Homo sapiens (Human), UniProt P34913). Briefly: Inhibitory activity against human sEH. The class given is biochemical. The following applies: read-out: Human sEH IC50.
For a further data set, the target named is Raf-1 (Homo sapiens (Human), UniProt P04049). Nature of the data set: In vitro kinase inhibition assay (ADP-Glo), Raf-1. The class given is biochemical. On the procedure:
(§1) All measurements included background and control (vehicle only) luminescence readings.
(§2) The kinases Raf-1 and b-Raf (V600E), and their corresponding substrate, MEK1, and Full length recombinant CRAF kinase and its respective substrate, recombinant MEK1, were purchased from US Biological (Swampscott, Mass.). All assays were performed under identical conditions for the Raf isozymes: 10 nM Enzyme, 1 μM MEK1, 10 μM ATP, at 22° C. for 2 hours. […] IC50 values were obtained by determining the change in the ADP production (luminescence signal) at various inhibitor concentrations as compared to the control assay. Individual data sets were performed in duplicate and each IC50 was determined by the average and standard deviation of three separate experiments.
Full length recombinant CRAF kinase and its respective substrate, recombinant MEK1, were purchased from US Biological (Swampscott, Mass.). All assays were performed at 10 nM CRAF, 1 μM MEK1, 10 μM ATP, at 22° C. for 2 hours. […] IC50 values were obtained by determining the change in the ADP production (luminescent signal) at various inhibitor concentrations as compared to the control assay. Individual data sets were performed in duplicate and each IC50 was determined by the mean and standard deviation of three separate experiments.
On the technique in general: ADP-Glo turns the ADP formed in a reaction into a luminescent signal.

The test system of the next data set is HepG2 hepatoma cell line. Nature of the data set: MTT cell viability assay, HepG2. The class given is cell-based. The following applies: for EC50: Homo sapiens, read-out: EC50 on cell viability, HepG2 (Liver). On the procedure:
(§3) Cell-based assays were performed using the described cell lines, grown in the appropriate Growth Mediums containing 10% fetal bovine serum and 1% penicillin-streptomycin. Cancer cells were plated at 15,000 cells/well in 96-well plates and allowed to attach overnight. […] Cell viability was determined after 72 hours incubation periods. To determine anti-proliferative effects of inhibitors, cellular proliferation was determined using the colorimetric MTT cell viability assay kit, as described by the manufacture (ATCC).
(Tetrazolium assays rely on reduction of a dye to a coloured formazan, in cell work by metabolically active cells.)

In a further data set the test system is Huh-7 hepatoma cell line. Nature of the data set: MTT cell viability assay, Huh-7. The following applies: Homo sapiens, read-out: EC50 on cell viability, Huh-7 (Liver). Type of data set: cell-based. On the procedure: as §3
The test system of data set [1] is ACHN renal cell carcinoma cell line. Nature of the data set: MTT cell viability assay, ACHN. The class given is cell-based. The following applies: Homo sapiens, read-out: EC50 on cell viability, ACHN (Kidney). On the procedure:
as §3

Data set [2] concerns PC-3 prostate cancer cell line. Briefly: MTT cell viability assay, PC-3. Type of data set: cell-based. To be noted: read-out: EC50 on cell viability, PC-3 (Prostate). On the procedure:
(§4) Cell-based assays were performed using the described cell lines, grown in the appropriate Growth Mediums containing 10% fetal bovine serum and 1% penicillin-streptomycin. Cancer cells were plated at 15,000 cells/well in 96-well plates and allowed to attach overnight. Inhibitors were dissolved in DMSO and then diluted to concentrations ranging from 0.1-25 μM with a final DMSO concentration of 0.1%. Cell viability was determined after 72 hours incubation periods. To determine anti-proliferative effects of inhibitors, cellular proliferation was determined using the colorimetric MTT cell viability assay kit, as described by the manufacture (ATCC).

In data set [3] the test system is T47D breast cancer cell line. Nature of the data set: MTT cell viability assay, T47D. The class given is cell-based. To be noted: Homo sapiens, 72 hours incubation. On the procedure:
as §4

The subject of data set [4] is SKBR3 breast cancer cell line. Nature of the data set: MTT cell viability assay, SKBR3. To be noted: Homo sapiens, read-out: EC50 on cell viability, SKBR3 (Breast). The class given is cell-based. On the procedure: as §4
The next data set concerns the target b-Raf (V600E) (Homo sapiens (Human), UniProt P15056, V600E). Nature of the data set: In vitro kinase inhibition assay (ADP-Glo), b-Raf (V600E). The class given is biochemical. On the procedure:
as §1, §2

The nature of data set [5]: Pharmacokinetics after cassette oral administration to mice. The following applies: male, Swiss Webster, mouse, in vivo, 1 mg/kg. On the procedure:
Male Swiss Webster mice (10-week old, 30-35 g) were used for PK studies. […] Each blood sample was immediately transferred to a tube containing 50 μL of water containing 0.1% EDTA. After being mixed strongly on a Vortex for 1 min, all samples were stored at −80° C. until analysis. The extraction of sEHIs from blood was performed by a slight modification of a previous method. […] Torrance, Calif.) held at 50° C. […] The injection volume was 10 μL and the samples were kept at 4° C. in the auto sampler. Analytes were detected by negative mode electrospray ionizations tandem quadrupole trap mass spectrometry in multiple reaction-monitoring mode (MRM) on a Trap 4000 Mass Spectrometer (ABI, Milford, Mass.). The parameters of MS condition were the same as presented previously.

Where [6] appears, read: HepG2, MTT, 72 hours incubation.
The mark [7] stands for this setting: Huh-7, MTT, 72 hours incubation.
Where [8] appears, read: SK-BR-3, MTT, 72 hours incubation.

Read-outs that look alike come from different tables or passages of the source. Where only a bound is given, the exact number is not on record here.

Chain of Raf-1 (P04049 whole entry): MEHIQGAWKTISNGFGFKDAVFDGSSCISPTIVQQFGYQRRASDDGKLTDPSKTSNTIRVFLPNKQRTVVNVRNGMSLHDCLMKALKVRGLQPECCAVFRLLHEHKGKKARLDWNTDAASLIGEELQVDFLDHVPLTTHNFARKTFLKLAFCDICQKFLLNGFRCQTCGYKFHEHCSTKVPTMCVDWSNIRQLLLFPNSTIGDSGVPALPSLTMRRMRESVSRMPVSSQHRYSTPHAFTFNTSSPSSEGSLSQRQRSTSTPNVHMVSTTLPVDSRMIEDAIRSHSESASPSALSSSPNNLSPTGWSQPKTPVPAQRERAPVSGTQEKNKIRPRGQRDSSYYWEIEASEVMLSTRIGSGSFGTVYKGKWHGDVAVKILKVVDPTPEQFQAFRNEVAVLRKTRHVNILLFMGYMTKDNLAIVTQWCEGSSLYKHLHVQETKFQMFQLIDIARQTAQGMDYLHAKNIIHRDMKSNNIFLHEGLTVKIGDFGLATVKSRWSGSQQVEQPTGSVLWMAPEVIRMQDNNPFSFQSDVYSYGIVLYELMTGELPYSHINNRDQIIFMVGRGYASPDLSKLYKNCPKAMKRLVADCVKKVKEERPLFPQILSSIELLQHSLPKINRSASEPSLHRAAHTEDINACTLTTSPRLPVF
Chain of human sEH (P34913 whole entry): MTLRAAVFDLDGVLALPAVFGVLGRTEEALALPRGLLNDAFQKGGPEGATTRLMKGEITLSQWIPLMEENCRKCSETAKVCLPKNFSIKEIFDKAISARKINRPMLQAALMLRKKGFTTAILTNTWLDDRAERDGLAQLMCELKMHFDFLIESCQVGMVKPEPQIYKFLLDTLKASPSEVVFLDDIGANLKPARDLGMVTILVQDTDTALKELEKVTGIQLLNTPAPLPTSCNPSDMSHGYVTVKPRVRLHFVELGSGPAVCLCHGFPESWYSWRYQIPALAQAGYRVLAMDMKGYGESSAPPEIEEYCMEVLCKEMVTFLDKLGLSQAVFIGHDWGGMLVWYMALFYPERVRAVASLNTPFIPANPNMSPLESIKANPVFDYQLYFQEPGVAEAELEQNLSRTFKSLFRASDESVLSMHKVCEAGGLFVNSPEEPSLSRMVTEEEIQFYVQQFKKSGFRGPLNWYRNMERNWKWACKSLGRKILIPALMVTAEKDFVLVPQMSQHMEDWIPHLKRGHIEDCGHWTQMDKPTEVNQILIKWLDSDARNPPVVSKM
Chain of b-Raf (V600E) (P15056 whole entry V600E): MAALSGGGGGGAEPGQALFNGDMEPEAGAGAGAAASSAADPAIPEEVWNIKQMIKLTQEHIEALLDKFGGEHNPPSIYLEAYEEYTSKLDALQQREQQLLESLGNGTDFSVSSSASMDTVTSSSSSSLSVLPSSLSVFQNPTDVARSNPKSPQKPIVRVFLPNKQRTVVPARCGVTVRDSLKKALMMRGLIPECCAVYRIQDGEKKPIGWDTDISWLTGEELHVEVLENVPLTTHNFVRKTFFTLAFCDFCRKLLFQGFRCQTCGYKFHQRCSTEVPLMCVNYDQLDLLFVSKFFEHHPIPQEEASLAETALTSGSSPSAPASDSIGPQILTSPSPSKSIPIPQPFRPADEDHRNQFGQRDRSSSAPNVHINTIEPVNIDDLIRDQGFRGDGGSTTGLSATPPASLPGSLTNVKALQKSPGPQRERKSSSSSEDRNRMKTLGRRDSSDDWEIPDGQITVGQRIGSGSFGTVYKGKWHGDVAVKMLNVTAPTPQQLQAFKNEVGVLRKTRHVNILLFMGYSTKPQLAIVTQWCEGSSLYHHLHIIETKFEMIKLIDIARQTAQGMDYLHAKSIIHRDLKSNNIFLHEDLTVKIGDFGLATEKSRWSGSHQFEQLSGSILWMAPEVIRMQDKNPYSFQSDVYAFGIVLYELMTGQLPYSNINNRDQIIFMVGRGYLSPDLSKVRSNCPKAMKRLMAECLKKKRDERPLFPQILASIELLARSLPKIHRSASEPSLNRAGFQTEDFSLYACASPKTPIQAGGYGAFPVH

On to `CNC(=O)c1ccc(O[C@H]2CC[C@H](NC(=O)NC34CC5CC(CC(C5)C3)C4)CC2)cc1` [Compound 2225, trans-4-[4-(3-adamantan-1-yl-ureido]-cyclohexyloxy)-N-methyl-benzamide], for which the IC50 (usually the concentration that gives 50% inhibition) at human sEH was 0.0005 µM; at Raf-1 (10 nM enzyme, 1 μM MEK1, 10 μM ATP, 22° C., 2 hours, read-out: Raf-1 IC50), above 10 µM. Further, the EC50 (usually the concentration at which the effect is half-maximal) in the data set on HepG2 hepatoma cell line (setting [6]) was 6 µM; in the data set on Huh-7 hepatoma cell line (setting [7]) it was 7 µM; in data set [1] (MTT, 72 hours incubation), 4.5 µM; in [2] (MTT, 72 hours incubation) it was 2 µM; in data set [3], 4.5 µM; in data set [4] (setting [8]), 7.5 µM.
As for `CNC(=O)c1ccc(O[C@H]2CC[C@H](NC(=O)Nc3ccc(OC(F)(F)F)cc3)CC2)cc1` [Compound 2227, trans-N-Methyl-4-{4-[3-(4-trifluoromethoxy-phenyl)-ureido]-cyclohexyloxy}-benzamide], the IC50 is 0.34 ± 0.04 µM against Raf-1 and above 10 µM at b-Raf (V600E). Besides, the concentration giving a half-maximal response (EC50) was 7 µM in the data set on HepG2 hepatoma cell line (HepG2, 72 h); 5.5 µM with Huh-7 hepatoma cell line (Huh-7, 72 h); 6.5 µM in data set [1] (72 h); 10 µM in [2] (72 h); above 25 µM in data set [3]; above 25 µM in data set [4] (SK-BR-3, 72 h).
Turning to `CNC(=O)c1cc(O[C@H]2CC[C@H](NC(=O)Nc3ccc(Cl)c(C(F)(F)F)c3)CC2)ccn1` [Compound 2278, trans-4-{4-[3-(4-chloro-3-trifluoromethyl-phenyl)-ureido]-cyclohexyloxy}-pyridine-2-carboxylic acid methylamide], at human sEH, the IC50 was 0.0005 µM. For the same compound, the “Effect on Hep G2 cell viability (dose dependence)” value in the data set with HepG2 hepatoma cell line (FIG. 2) and in the data set with HepG2 hepatoma cell line (FIG. 4) was “more efficient than sunitinib” in each case. The “Effect on Hep G2 cell viability (comparison of inhibitors)” value in the data set on HepG2 hepatoma cell line (FIG. 3, at a concentration 2-fold smaller) was “more efficient than sunitinib”. The EC50 in the data set with HepG2 hepatoma cell line (setting [6]) came to 7 µM; in the data set on Huh-7 hepatoma cell line (setting [7]) it was 8 µM; in [1] (MTT, 72 hours incubation), 7.5 µM; in data set [2] (MTT, 72 hours incubation), 7 µM; in [3] it was 5 µM; in data set [4] (setting [8]) it was 8 µM. Moreover, the AUC(0-t) – broadly, exposure summed from dosing to a finite time, without extrapolation to infinity – in data set [5] was 3 µM·h. In [5], the Cmax (as a rule, the maximum level reached in the sampled fluid or tissue) came to 190 nM. Moreover, the Tmax – broadly, the time from dosing to the highest level – in data set [5] turned out to be 1.7 h.
For the compound `CNC(=O)c1cc(Oc2ccc(NC(=O)Nc3ccc(Cl)c(C(F)(F)F)c3)cc2)ccn1` [Sorafenib, reference compound], the EC50 was found to be 4.2 µM with Huh-7 hepatoma cell line (Huh-7, 72 h); 4 µM in data set [1] (72 h); 5.5 µM in data set [2] (72 h); 3 µM in data set [3]; 6.5 µM in [4] (SK-BR-3, 72 h).

Source of the values: patent US9029401B2 (The Regents of the University of California, priority 2011, dated 2015).
